From patent US11149071B2, “Fusion protein Slit2D2(C386S)-HSA and use thereof in prevention and/or treatment of lung inflammation” (Asclepius (Suzhou) Technology Company Group Co., Ltd., priority 2017, dated 2021)

Key:
[1] = test system: lipopolysaccharide-induced lung injury; experiment: rat model of acute lung injury induced by airway infusion of LPS; differential cell counts in BALF; assay type: in vivo, Wistar rat
Description: Acute lung injury (ALI) is a systemic uncontrolled inflammatory response caused by various direct and indirect injury factors, accompanied by alveolar epithelial cells and capillary endothelial cell injury, its pathogenesis is still unclear, and there is still no effective treatment means. A rat model with airway infusion of lipopolysaccharide (LPS) is a commonly used animal model. In this study, airway infusion of LPS induced acute lung injury in rats. The animals were injected compounds via tail vein. After four hours, lung lavage and bronchoalveolar lavage fluid were collected, and differential cell were counts and measured to represent the efficacy of test compounds in preventing lipopolysaccharide-induced lung injury.
Except for group 1, all other groups were received pulmonary perfusion of lipopolysaccharide. Animals were anesthetized by 3-5% isoflurane, and 100 μl of LPS solution (1 mg/ml) was introduced into rat trachea with a micro-atomizer intubation, and after 4 hours, the animals were killed with chloral hydrate (750 mg/kg). The lungs were gently perfused three times in situ with 4 ml of PBS+1% albumin. After lavage, bronchoalveolar lavage fluid (BALF) was preserved in ice, and then the number of eosinophils (EOS), macrophages (Mac), neutrophils (Neu), lymphocytes (Lym) and the total number of cells were measured.

mouse models of asthma = mouse models of asthma (ovalbumin sensitization and aerosol challenge); BALF cell counts, Penh, BALF cytokines; assay type: in vivo, BALB/c mice
Description: On the first day and the 14th day of the experiment, the asthma models were sensitized by intraperitoneal injection, and the asthma group was given sensitization solution containing 20 μg of ovalbumin and 2 mg of alum suspension each time.
3.3.2 On the days 28, 29 and 30, the mice of 2-4 groups were stimulated with aerosol, which included dissolving 100 mg OVA in 10 ml PBS and adding 5 μl Triton X-100, and atomized by atomizing inhalation facility (Buxco) for 30 minutes, and then the nebulizer was turned off. Finally, the mice were kept in the inhalation box for additional 7 minutes, and following by being taken out. The negative control mice were exposed in aerosolized PBS for 30 minutes.
Group 1 (PBS control group) were injected intraperitoneally with PBS at 2 hours before PBS sensitization on the days 28, 29 and 30. Group 2 (OVA control group) were injected intraperitoneally with PBS at 2 hours before OVA sensitization on the days 28, 29 and 30. Group 3 were injected intraperitoneally with ZD018 at 2 hours before OVA sensitization on the days 28, 29 and 30. Group 4 were intragastrically administrated with dexamethasone at 2 hours before OVA sensitization on the days 28, 29 and 30.
On the 31st (24 hours after the last challenge), the Penh of mice were detected with a Buxco mouse non-invasive pulmonary function instrument. The change of Penh was determined after atomization stimulating of 300 μl doubling concentration of methacholine (Mch). The stimulating concentrations from low to high were 0, 0.78, 1.56, 3.125, 6.25, 12.5, 25 and 50 g/L, respectively. The mean value of Penh was recorded at each stimulating concentration level of Mch. The Penh value at each stimulating concentration of Mch was converted to a percentage of the Penh value at the time of the stimulating normal saline (The Penh value stimulated by Mch/The Penh value stimulated by normal saline, 100%), and represented by penh %, which was used as an evaluation index for mice airway response.
3.5 The observation of airway inflammation: the cytological examination of bronchoalveolar lavage and bronchoalveolar lavage fluid (BALF).
3.6 IL-13 and IL-5 cytokine levels in bronchoalveolar lavage fluid (BALF) were tested with Elisa Kit (R&D, USA).

[2] = test doses of 5 mg/kg, 1 mg/kg and 0.2 mg/kg i.v. 3 hours before LPS perfusion, BALF 4 hours after LPS, compared with the model group (FIG. 4)
[3] = ZD018 1 mg/kg i.p. 2 hours before OVA challenge on days 28, 29 and 30 (FIG. 6)

**Q.** With “Slit2D2(C386S)-HSA: recombinant fusion protein of Slit2 D2 domain (cysteine at position 386 mutated to serine) and HSA, SEQ ID NO: 2” as the substance, how does the “efficacy compared with Slit2D2-HSA recombinant protein” value ([1]; both at 5 mg/kg dose i.v. 3 hours before LPS perfusion (FIG. 4)) read?
**A.** superior to Slit2D2-HSA recombinant protein

**Q.** What about the “increase of cell number (total number of cells in BALF)” value [1, 2] of the same substance?
**A.** significantly inhibited

**Q.** What about the “number of neutrophils in bronchoalveolar lavage fluid” value [1, 2] of the same substance?
**A.** significantly controlled

**Q.** What about the “accumulation of eosinophils in alveolar fluid (BALF)” value (mouse models of asthma; ZD018 1 mg/kg i.p. 2 hours before OVA challenge on days 28, 29 and 30 (FIG. 5)) of the same substance?
**A.** significantly inhibit

**Q.** And the “accumulation of lymphocytes in alveolar fluid (BALF)” value (mouse models of asthma; [3])?
**A.** inhibit

**Q.** What about the “accumulation of neutrophils in alveolar fluid (BALF)” value (mouse models of asthma; [3]) of the same substance?
**A.** inhibit

**Q.** What about the “IL-5 cytokine level in bronchoalveolar lavage fluid (BALF)” value (mouse models of asthma; ZD018 1 mg/kg i.p., Elisa Kit (FIG. 8)) of the same substance?
**A.** inhibit

**Q.** What about the “IL-13 cytokine level in bronchoalveolar lavage fluid (BALF)” value (mouse models of asthma; ZD018 1 mg/kg i.p., Elisa Kit (FIG. 9)) of the same substance?
**A.** inhibit

**Q.** What about the “enhanced pause (Penh) index stimulated by methacholine (Mch)” value (mouse models of asthma; ZD018 1 mg/kg i.p., day 31, 24 hours after the last challenge, Mch 0-50 g/L, compared with control group G2 (FIG. 7)) of the same substance?
**A.** effectively inhibit
